Reference: patent US10071090B2 (priority 2014, dated 2018)

Legend:
[1] = in vivo, po; cited from earlier work
[2] = Solubility of oxymorphone in adhesive systems; format: physicochemical; details: in general
Description: A variety of adhesive systems, enhancers and cosolvents were employed to observe permeation differences within these systems. In general, solubility in acrylic adhesives (i.e. Duro-Tak®) was higher, and thus the driving force out of the patch would be relatively lower. Solubility in silicone adhesives was lower and thus provided a much higher driving constant out of the formulation and into the skin; however, due to the relatively lower solubility, a solubility enhancer that also assisted in solubilising the skin was utilized.

Compound: CN1CC[C@]23c4c5ccc(O)c4O[C@H]2C(=O)CC[C@@]3(O)[C@H]1C5 [Oxymorphone]
- Bioavailability [1]: 10%
- Solubility in silicone adhesives ([2]; compared with acrylic adhesives): lower
- solubility in acrylic adhesives (i.e. Duro-Tak®) ([2]; compared with silicone adhesives): higher

Compound: COc1ccc2c3c1O[C@H]1C(=O)CC[C@@]4(O)[C@@H](C2)N(C)CC[C@]314 [Oxycodone]
- Bioavailability [1]: 87%

Compound: COc1ccc2c3c1O[C@H]1C(=O)CC[C@H]4[C@@H](C2)N(C)CC[C@]314 [Hydrocodone]
- Bioavailability [1]: 80%
